US4749717A, “Dopamine-beta-hydroxylase inhibitors” (SmithKline Beckman Corporation, priority 1987, dated 1988)
pIC50: −log10 of the molar value.

Key:
[1] = biological target: T1, DBH (dopamine-β-hydroxylase) (Bos taurus, UniProt P15101); test: in vitro DBH inhibition (conversion of tyramine to octopamine; spectrophotometric absorbance at 330 nm); assay type: biochemical; details: concentration of compound at which DBH activity was halved
T1 sequence (P15101 1-610): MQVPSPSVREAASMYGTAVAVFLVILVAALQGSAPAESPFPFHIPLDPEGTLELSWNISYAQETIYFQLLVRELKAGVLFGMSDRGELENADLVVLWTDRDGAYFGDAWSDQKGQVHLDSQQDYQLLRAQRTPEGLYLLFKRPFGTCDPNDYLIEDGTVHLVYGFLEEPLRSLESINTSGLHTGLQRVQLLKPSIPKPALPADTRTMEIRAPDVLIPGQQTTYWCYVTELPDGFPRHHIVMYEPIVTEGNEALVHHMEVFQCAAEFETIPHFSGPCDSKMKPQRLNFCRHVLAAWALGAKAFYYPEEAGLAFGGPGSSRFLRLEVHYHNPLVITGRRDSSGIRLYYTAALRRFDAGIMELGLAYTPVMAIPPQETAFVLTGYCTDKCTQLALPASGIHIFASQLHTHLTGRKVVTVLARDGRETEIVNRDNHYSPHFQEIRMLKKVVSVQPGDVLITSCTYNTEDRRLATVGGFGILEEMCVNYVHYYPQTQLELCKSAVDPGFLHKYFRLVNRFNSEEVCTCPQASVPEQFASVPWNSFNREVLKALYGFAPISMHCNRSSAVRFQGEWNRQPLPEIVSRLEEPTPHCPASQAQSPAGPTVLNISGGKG
Protocol: Listed in Table I are the compounds of the invention that were tested for in vitro DBH inhibition by a standard procedure for assaying conversion of tyramine to octopamine in the presence of DBH. J. J. Pisano, et al., Biochim. Biophys. Acta, 43, 566-568 (1960). Octopamine was assayed following sodium periodate oxidation to p-hydroxybenzaldehyde by measuring spectrophotometric absorbance at 330 nm.

[2] = system: spontaneously hypertensive rats; test: mean arterial blood pressure in spontaneously hypertensive rats; assay type: in vivo, rat; details: 50 mg/kg intraperitoneally
Protocol: Further, spontaneously hypertensive rats were treated with a suspension or solution of 1-(2-thienylmethyl)imidazole-2-thiol at a dose of 50 mg/kg intraperitoneally, and mean arterial blood pressure was monitored for 260 minutes using indwelling cannulae in the tail arteries. […] The maximal blood pressure reduction was approximately 25 to 30 mmHg.

[3] = biological target: T2, DBH (dopamine-β-hydroxylase) (Homo sapiens, UniProt P09172); details: literature; cited from earlier work
T2 sequence (P09172 1-617): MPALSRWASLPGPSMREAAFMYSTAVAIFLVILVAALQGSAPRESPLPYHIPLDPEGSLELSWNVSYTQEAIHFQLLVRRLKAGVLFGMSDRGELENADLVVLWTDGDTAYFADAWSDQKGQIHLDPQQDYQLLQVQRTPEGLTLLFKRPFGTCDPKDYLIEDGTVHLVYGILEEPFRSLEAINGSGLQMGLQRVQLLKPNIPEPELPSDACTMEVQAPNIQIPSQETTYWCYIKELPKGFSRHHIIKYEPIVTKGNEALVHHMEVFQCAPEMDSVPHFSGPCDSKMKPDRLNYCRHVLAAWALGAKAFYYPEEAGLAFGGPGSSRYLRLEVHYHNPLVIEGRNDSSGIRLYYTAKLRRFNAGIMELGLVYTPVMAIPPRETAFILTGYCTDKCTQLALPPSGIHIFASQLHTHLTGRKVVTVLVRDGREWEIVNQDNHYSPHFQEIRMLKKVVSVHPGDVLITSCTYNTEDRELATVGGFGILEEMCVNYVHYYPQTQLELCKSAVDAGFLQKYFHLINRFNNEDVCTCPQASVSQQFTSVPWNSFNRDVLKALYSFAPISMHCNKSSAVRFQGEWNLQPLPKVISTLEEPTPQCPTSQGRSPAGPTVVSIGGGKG

[4] = Ehrreich et al.; cited from earlier work
[5] = Teresawa et al.; cited from earlier work

Compound	DBH inhibition (in words) [3]	further results
Sc1nccn1Cc1cccs1 [1-(2-thienylmethyl)imidazole-2-thiol, 1-(2-Thienylmethyl)Imidazole-2-Thiol]		pIC50 [1]: 4.89; time after treatment to significant blood pressure reductions [2]: ≤ 60 min; maximal blood pressure reduction ([2]; mean arterial blood pressure, approximately): 25 to 30 mmHg; blood pressure reduction compared to vehicle-treated controls ([2]; monitored for 260 minutes): significant blood pressure reductions
Sc1nccn1Cc1ccsc1 [1-(3-thienylmethyl)imidazole-2-thiol, 1-(3-Thienylmethyl)imidazole-2-thiol]		pIC50 [1]: 5.13
NCC=Cc1cccs1 [3-(2-thienyl)allylamine]	potent, time-dependent DBH inhibitors	
O=C(O)c1ccc(CCC(Br)CBr)cn1 (centres unmarked) [5-(3,4-dibromobutyl)picolinic acid]	DBH inhibitors	
O=C(O)c1ccc(CCCCCl)cn1 [5-(4-chlorobutyl) picolinic acid]	inhibit DBH	
CN(C)C(=S)SCc1ccc(C(=O)O)nc1 [5-(dimethyldithiocarbamoylmethyl)picolinic acid]	DBH inhibitors	
NOCc1ccccc1 [Benzyloxyamine, benzyloxyamine]	apparently act as competitive inhibitors	
CCCCc1ccc(C(N)=O)nc1 [Bupicomide, 5-(n-butyl)picolinamine]	DBH inhibitor	antihypertensive activity (in words) [4]: has antihypertensive activity
NNCc1ccccc1 [benzylhydrazine]	apparently act as competitive inhibitors	
CCCCc1ccc(C(=O)O)nc1 [fusaric acid]		hepatotoxicity (in words) [5]: hepatotoxic
